Laboratory results from PMC11249646, “Small-Molecule Disruptors of the Interaction between Calcium- and Integrin-Binding Protein 1 and Integrin αIIbβ3 as Novel Antiplatelet Agents” (ACS Pharmacology & Translational Science, 2024).

molecular target: T1, CIB1 and αIIb interaction (CIB1-GST : F-αIIb peptide) (Homo sapiens, UniProt Q99828); test: FP assay, 1536-well qHTS format (primary and confirmatory screen); assay type: binding; settings: confirmatory screen
T1 construct: made in house; host or cells: BL-21 plus RIL cells (E. coli)
T1 sequence (Q99828 1-191): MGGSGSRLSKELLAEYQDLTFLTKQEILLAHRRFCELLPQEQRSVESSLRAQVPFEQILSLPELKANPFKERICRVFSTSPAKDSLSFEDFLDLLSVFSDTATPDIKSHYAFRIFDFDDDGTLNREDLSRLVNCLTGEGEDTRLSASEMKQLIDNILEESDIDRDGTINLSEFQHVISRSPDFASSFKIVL

Compound | CONFIRMATORY SCREEN Efficacy (%) | Efficacy (%) (confirmatory screen)
O=C(O)C(F)(F)F.O=C1Nc2ccccc2/C1=N/NC(=S)Nc1c(F)cc(F)cc1F [NCGC00229537-01] | -26% | 
O=C(O)C(F)(F)F.O=C1Nc2ccccc2/C1=N/NC(=S)Nc1ccccc1 [NCGC00229542-01] |  | -50%
CCNC(=O)c1ccc(-c2ccc3ncnc(N4CCOCC4)c3c2)o1.O=C(O)C(F)(F)F [NCGC00238377-01] |  | -45%
CC(O)c1ccc(-c2ccc3ncnc(N4CCOCC4)c3c2)o1.O=C(O)C(F)(F)F (centres unmarked) [NCGC00238381-02] | -26% | 

same assay, conditions: confirmatory screen, YES/NO

Compound | Confirm? (confirmatory screen)
O=C(O)C(F)(F)F.O=C1Nc2ccccc2/C1=N/NC(=S)Nc1ccccc1 [NCGC00229542-01] | YES
CCNC(=O)c1ccc(-c2ccc3ncnc(N4CCOCC4)c3c2)o1.O=C(O)C(F)(F)F [NCGC00238377-01] | YES

same assay, conditions: confirmatory screen, qHTS curve class

Compound | CONFIRMATORY SCREEN Curve Class
O=C(O)C(F)(F)F.O=C1Nc2ccccc2/C1=N/NC(=S)Nc1c(F)cc(F)cc1F [NCGC00229537-01] | 4
CC(O)c1ccc(-c2ccc3ncnc(N4CCOCC4)c3c2)o1.O=C(O)C(F)(F)F (centres unmarked) [NCGC00238381-02] | 4

same assay, conditions: confirmatory screen, qHTS curve class; negative sign = inhibitory curve

Compound | Curve Class (confirmatory screen)
O=C(O)C(F)(F)F.O=C1Nc2ccccc2/C1=N/NC(=S)Nc1ccccc1 [NCGC00229542-01] | -1.4
CCNC(=O)c1ccc(-c2ccc3ncnc(N4CCOCC4)c3c2)o1.O=C(O)C(F)(F)F [NCGC00238377-01] | -1.4

same assay, conditions: confirmatory screen; read-out: IC50 [μM] (confirmatory screen)

Compound | IC50
O=C(O)C(F)(F)F.O=C1Nc2ccccc2/C1=N/NC(=S)Nc1ccccc1 [NCGC00229542-01] | 3.2 µM

same assay, conditions: qHTS FP screen hits, Table S2; negative = inhibition

Compound | Efficacy (%)
CC(O)c1ccc(-c2ccc3ncnc(N4CCOCC4)c3c2)o1.O=C(O)C(F)(F)F (centres unmarked) [NCGC00238381-02] | -19%

same assay, conditions: qHTS FP screen hits, Table S2; read-out: IC50

Compound | IC50
CC(O)c1ccc(-c2ccc3ncnc(N4CCOCC4)c3c2)o1.O=C(O)C(F)(F)F (centres unmarked) [NCGC00238381-02] | 14.1 µM

same assay, conditions: qHTS primary screen hits, Table S2; negative = inhibition

Compound | Efficacy (%)
O=C(O)C(F)(F)F.O=C1Nc2ccccc2/C1=N/NC(=S)Nc1c(F)cc(F)cc1F [NCGC00229537-01] | -30%
O=C(O)C(F)(F)F.O=C1Nc2ccccc2/C1=N/NC(=S)Nc1ccccc1 [NCGC00229542-01] | -27%
CCNC(=O)c1ccc(-c2ccc3ncnc(N4CCOCC4)c3c2)o1.O=C(O)C(F)(F)F [NCGC00238377-01] | -23%

same assay, conditions: qHTS primary screen hits, Table S2; negative sign = inhibitory curve; several classes where COUNT > 1

Compound | Curve Class
O=C(O)C(F)(F)F.O=C1Nc2ccccc2/C1=N/NC(=S)Nc1c(F)cc(F)cc1F [NCGC00229537-01] | -1.4
O=C(O)C(F)(F)F.O=C1Nc2ccccc2/C1=N/NC(=S)Nc1ccccc1 [NCGC00229542-01] | -1.4
CCNC(=O)c1ccc(-c2ccc3ncnc(N4CCOCC4)c3c2)o1.O=C(O)C(F)(F)F [NCGC00238377-01] | -2.4

same assay, conditions: qHTS primary screen hits, Table S2; read-out: IC50

Compound | IC50
O=C(O)C(F)(F)F.O=C1Nc2ccccc2/C1=N/NC(=S)Nc1c(F)cc(F)cc1F [NCGC00229537-01] | 12.6 µM
O=C(O)C(F)(F)F.O=C1Nc2ccccc2/C1=N/NC(=S)Nc1ccccc1 [NCGC00229542-01] | 10 µM
CCNC(=O)c1ccc(-c2ccc3ncnc(N4CCOCC4)c3c2)o1.O=C(O)C(F)(F)F [NCGC00238377-01] | 28.2 µM

molecular target: T2, GST-CIB1 : F-scrambled peptide (Homo sapiens, UniProt Q99828); test: FP scrambled-peptide counter screen, 1536-well format; assay type: binding; settings: counterscreen
T2 construct: made in house; host or cells: BL-21 plus RIL cells (E. coli)
T2 sequence (Q99828 1-191): T1 sequence (Q99828 1-191)

Compound | COUNTERSCREEN Efficacy (%) | Efficacy (%) (counterscreen)
O=C(O)C(F)(F)F.O=C1Nc2ccccc2/C1=N/NC(=S)Nc1c(F)cc(F)cc1F [NCGC00229537-01] | -11% | 
O=C(O)C(F)(F)F.O=C1Nc2ccccc2/C1=N/NC(=S)Nc1ccccc1 [NCGC00229542-01] |  | -34%
CCNC(=O)c1ccc(-c2ccc3ncnc(N4CCOCC4)c3c2)o1.O=C(O)C(F)(F)F [NCGC00238377-01] |  | -38%
CC(O)c1ccc(-c2ccc3ncnc(N4CCOCC4)c3c2)o1.O=C(O)C(F)(F)F (centres unmarked) [NCGC00238381-02] | -14% | 

same assay, conditions: counterscreen, qHTS curve class

Compound | COUNTERSCREEN Curve Class
O=C(O)C(F)(F)F.O=C1Nc2ccccc2/C1=N/NC(=S)Nc1c(F)cc(F)cc1F [NCGC00229537-01] | 4
CC(O)c1ccc(-c2ccc3ncnc(N4CCOCC4)c3c2)o1.O=C(O)C(F)(F)F (centres unmarked) [NCGC00238381-02] | 4

same assay, conditions: counterscreen, qHTS curve class; negative sign = inhibitory curve

Compound | Curve Class (counterscreen)
O=C(O)C(F)(F)F.O=C1Nc2ccccc2/C1=N/NC(=S)Nc1ccccc1 [NCGC00229542-01] | -1.2
CCNC(=O)c1ccc(-c2ccc3ncnc(N4CCOCC4)c3c2)o1.O=C(O)C(F)(F)F [NCGC00238377-01] | -2.2

same assay, conditions: counterscreen; read-out: IC50 [μM] (counterscreen)

Compound | IC50
O=C(O)C(F)(F)F.O=C1Nc2ccccc2/C1=N/NC(=S)Nc1ccccc1 [NCGC00229542-01] | 4.5 µM
CCNC(=O)c1ccc(-c2ccc3ncnc(N4CCOCC4)c3c2)o1.O=C(O)C(F)(F)F [NCGC00238377-01] | 44.7 µM
